# Experimental data reported in patent publication EP4692089A1, “NITROGEN-CONTAINING HETEROCYCLIC COMPOUND AS AAK1 INHIBITOR” (Alicorn Pharmaceutical Co., Ltd., priority 2023, dated 2024).
# Values joined by “and” are separate entries in the source; they are usually repeats but may differ in a detail not shown here. Equal values may be shown once.
# Assays:
# AAK1 (30-330) protein [1] = biological target: T1, AAK1 (30-330) protein (Homo sapiens, UniProt Q2M2I8); test: CETSA test of binding ability to AAK1 protein (Western blot)
# T1 construct: (His)6x (N); TEV protease cleavage site (N); made in house; host or cells: Escherichia coli BL21(DE3)
# T1 sequence (Q2M2I8 30-330): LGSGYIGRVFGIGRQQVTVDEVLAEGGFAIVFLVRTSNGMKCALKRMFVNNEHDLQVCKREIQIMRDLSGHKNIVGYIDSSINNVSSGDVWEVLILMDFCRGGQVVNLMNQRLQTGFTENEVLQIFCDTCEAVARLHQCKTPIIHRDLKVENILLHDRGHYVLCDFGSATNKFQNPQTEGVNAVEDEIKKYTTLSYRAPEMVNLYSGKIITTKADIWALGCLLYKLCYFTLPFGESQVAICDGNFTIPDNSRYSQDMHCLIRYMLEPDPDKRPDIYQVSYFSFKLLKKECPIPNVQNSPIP
# Procedure: Experimental objective: To detect the binding ability of compounds to AAK1 protein by means of a CETSA experiment.
# Background principle: The CETSA experiment is a molecular detection means for measuring the affinity between drugs and target proteins. […] When a candidate drug is co-incubated with a target protein, if the candidate drug is an inhibitor of AAK1, it can bind to AAK1. […] On the contrary, the stability of the AAK1 protein after heating will be poorer, and the amount of the detected protein will be lower. In this way, the binding ability of the drug to the target protein can be evaluated, which is used for the screening of AAK1 protein inhibitors.
# (§1) Expression of AAK1 (30-330) protein: The AAK1 sequence (residues 30-330) was cloned into the pET24N vector with an N-terminal (His)6x tag and a tobacco etch virus (TEV) protease cleavage site. The constructed vector was transformed into Escherichia coli BL21(DE3). When the bacteria were cultured with shaking to reach an OD value of 0.6, 1 mM IPTG was added. […] The bacterial cells were collected and subjected to ultrasonic disruption. The supernatant was obtained by centrifugation, and the protein was purified using Ni-NTA. After dialysis, the concentration and purity of the protein were determined.
# CETSA sample preparation: Samples were incubated with candidate drugs, control drugs, and control reagents separately for 30 minutes. Each group of samples was heated at approximately 10 pre-set temperature points. After being returned to room temperature, the samples were centrifuged at 20000 g, and the supernatants were collected. Protein samples were denatured by heating at 100°C for 10 minutes with a sample buffer. After the samples were returned to room temperature, Western blot detection was performed on them; the protein loading amount was controlled at 20 µg. […] The same operations were followed, and Western blot detection was conducted. Protein electrophoresis: The voltage for the stacking gel was set at 60 V, and that for the separating gel was set at 120 V. After electrophoresis, electrotransfer was initiated. Electrotransfer conditions were set at 250 mA for 2 h. Blocking with 5% BSA was performed for 1 h. A specific primary antibody was added, and incubation was carried out overnight at 4°C on a shaker. Washing with TBST was conducted 4 times, with 2.5 minutes each time. A secondary antibody was incubated on a shaker at room temperature for 1 h. Washing with TBST was conducted 4 times, with 2.5 minutes each time. ECL was used for development to detect the expression levels of AAK1 protein in different groups and at each temperature point. Western blot bands were processed and converted using Image J and GraphPad software to calculate EC50.
# [2] = Blood-brain distribution in DPNP model rats; conditions: SD, rat; for concentration at 6 h: oral; for Kp at 6 h: brain/plasma, po
# Procedure: Experimental objective: This experiment aims to investigate the analgesic effect of test compounds on streptozotocin (STZ)-induced peripheral neuropathic pain (DPNP) in diabetic rat models and the brain-blood distribution of the compounds associated with the efficacy, via single oral gavage (ig.) administration.
# After successful modeling, the baseline plantar pain threshold of the rats was tested using the Von Frey (UP-Down method) as the baseline pain threshold before administration, and the rats were evenly grouped according to their pain thresholds. The groups included a blank control group, a model group, a positive control group (1 mg/kg), a Compound 26 (0.5 mg/kg) group, and a Compound 26 (1 mg/kg) group. The next day, the rats were administered the vehicle or corresponding drugs. At 2 h, 3 h, 4 h, 5 h, and 6 h after administration, the pain threshold of the plantar region on the affected side of rats was determined using Von Frey filaments to calculate the pain threshold improvement rate of the test compounds against neuropathic pain in diabetic rats, and to observe the time-effect relationship. After the experiment, rats from groups G3-G5 (numbers 1-3 per group) were sacrificed, and plasma and brain tissue samples were collected for testing.
# [3] = Pharmacokinetic test in SD rats
# Procedure: Experimental objective: The objective of this experimental example is to test the pharmacokinetic profile of compounds in SD rats.
# Route of administration: The animals were weighed before administration, and the dose was calculated based on their body weight. Administration was performed via intravenous injection and oral gavage.
# Blood collection time points: After administration, for IV group: 0.083 h, 0.25 h, 0.5 h, 1 h, 2 h, 4 h, 8 h, and 24 h; for PO group: 0.25 h, 0.5 h, 1 h, 2 h, 4 h, 6 h, 8 h, and 24 h. Blood was collected via the jugular vein, with approximately 0.2 mL collected for each sample. The blood samples were anticoagulated with K2-EDTA and placed on ice after collection.
# Plasma sample processing: After collection, the blood samples were placed on ice and centrifuged within 1 hour to separate plasma (centrifugation conditions: 6800g, 6 minutes, 2-8°C). The plasma samples were stored in a -80°C refrigerator before analysis.
# Result analysis: Pharmacokinetic parameters were calculated using Phoenix WinNonlin 7.0 based on the plasma concentration data at different time points.
# AAK1 (30-330) protein [4] = biological target: T1, AAK1 (30-330) protein; test: AAK1 kinase assay (ADP generated, detected by HPLC); format: biochemical; conditions: 3.5 nM AAK1, 22 µM ATP, 25°C, 3 h
# Excerpt: Experimental objective: The objective of this test example is to test the effect of compounds on AAK1 kinase function.
# Background principle: AAK1 phosphorylates the threonine residue in the micro-subunit of AP2 (AP2M1). In this process, ATP provides phosphate groups to generate ADP. Therefore, the activity of AAK1 kinase can be evaluated by detecting the amount of ADP generated.
# as §1
# The reaction mixture was incubated in a metal bath at 25°C for 3 h. The reaction was terminated by adding 1% SDS, and the amount of ADP generated was detected by HPLC. IC50 values were calculated using GraphPad software.
# AAK1 = biological target: T2, AAK1 (Homo sapiens, UniProt Q2M2I8); test: Effect on AP2M1 phosphorylation in 293T cells co-transfected with AAK1 and AP2M1 (Western blot, anti-p-AP2M1); format: cell-based; conditions: p-AP2M1 level, incubated 3 h
# T2 construct: HA; expressed in transfected cells; host or cells: 293T cells
# T2 sequence (Q2M2I8 whole entry): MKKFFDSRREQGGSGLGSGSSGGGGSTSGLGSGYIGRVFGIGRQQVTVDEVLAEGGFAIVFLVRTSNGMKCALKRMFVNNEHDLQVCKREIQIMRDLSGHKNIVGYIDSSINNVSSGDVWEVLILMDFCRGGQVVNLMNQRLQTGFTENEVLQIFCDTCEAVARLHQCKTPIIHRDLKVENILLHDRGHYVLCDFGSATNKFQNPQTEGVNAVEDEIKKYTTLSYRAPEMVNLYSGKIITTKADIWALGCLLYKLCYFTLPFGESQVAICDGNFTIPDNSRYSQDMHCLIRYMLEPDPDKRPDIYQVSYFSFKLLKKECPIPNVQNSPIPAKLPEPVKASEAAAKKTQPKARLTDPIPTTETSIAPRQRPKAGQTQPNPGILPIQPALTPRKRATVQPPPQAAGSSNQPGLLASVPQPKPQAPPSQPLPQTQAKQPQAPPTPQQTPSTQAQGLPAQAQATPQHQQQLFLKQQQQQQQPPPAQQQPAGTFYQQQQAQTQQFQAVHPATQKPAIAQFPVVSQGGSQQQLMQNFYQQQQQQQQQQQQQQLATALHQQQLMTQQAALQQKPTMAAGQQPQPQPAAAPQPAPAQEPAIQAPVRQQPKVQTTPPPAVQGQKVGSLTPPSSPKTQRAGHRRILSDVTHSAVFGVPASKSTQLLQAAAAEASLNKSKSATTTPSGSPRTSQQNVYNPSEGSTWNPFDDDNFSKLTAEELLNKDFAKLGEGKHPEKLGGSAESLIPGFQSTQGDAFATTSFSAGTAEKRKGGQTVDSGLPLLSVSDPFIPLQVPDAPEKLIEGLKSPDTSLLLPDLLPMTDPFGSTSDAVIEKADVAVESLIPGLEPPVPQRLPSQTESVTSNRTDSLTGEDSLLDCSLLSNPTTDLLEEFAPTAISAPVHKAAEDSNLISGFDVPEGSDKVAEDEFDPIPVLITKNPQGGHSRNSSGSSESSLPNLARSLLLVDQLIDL
# Excerpt: Experimental objective: The objective of this test example is to determine the effect of compounds on AP2M1 phosphorylation in cells.
# Background principle: Adaptor-associated kinase 1 (AAK1), also known as AP2-associated kinase 1, is a 104 kDa serine/threonine kinase. AAK1 interacts with the adaptor protein 2 (AP2) complex and phosphorylates the threonine residue in the micro-subunit of AP2 (AP2M1), thereby increasing its binding affinity for certain tyrosine-based or dileucine-based sorting signals of some membrane receptors. The inhibitory effect of compounds on AAK1 was evaluated by detecting the phosphorylation level of AP2M1 in cells, so as to screen candidate compounds.
# On the second day, each T25 flask was co-transfected with 16 µg of plasmids (1 µg of AAK1/HA/pIRES and 15 µg of Flag/AP2MI/pcDNA) using a Lip2000 transfection reagent. On the third day, the cells were digested and resuspended, centrifuged at 1000 rpm for 5 minutes, and then seeded into 24-well plates at 450 µl per well (2 × 10^5 cells/well). Gradient dilutions of the compounds to be tested were prepared, 50 µl was added to each well, mixed thoroughly, and incubated at 37°C for 3 h. DMSO was set as a control, and cells without plasmid transfection were set as a blank control. After incubation, the cells were collected and washed twice with PBS. The cells were lysed on ice for 30 minutes using a cell lysis buffer containing the protease inhibitor PMSF. The concentration of protein samples was determined using a BCA kit. Protein electrophoresis: The voltage for the stacking gel was set at 60 V, and that for the separating gel was set at 120 V. After electrophoresis, electrotransfer was initiated. Electrotransfer conditions were set at 250 mA for 2 h. Blocking with 5% BSA was performed for 1 h. A specific primary antibody, anti-p-AP2M1, was added, and incubation was carried out overnight at 4°C on a shaker. Washing with TBST was conducted 4 times, with 2.5 minutes each time. A secondary antibody was incubated on a shaker at room temperature for 1 h. Washing with TBST was conducted 4 times, with 2.5 minutes each time. ECL was used for development to detect the expression level of p-AP2M1. Western blot bands were processed and converted using Image J and GraphPad software to calculate IC50.
# IC50 (half maximal inhibitory concentration) refers to the half-inhibitory concentration of the measured antagonist. It can indicate the concentration of a certain drug or substance (inhibitor) that achieves half of the inhibition effect on certain biological processes (or certain substances involved in these processes, such as enzymes, cellular receptors, or microorganisms).
# [5] = male, SD, rat, plasma, po, 3 mg/kg
structure (smiles),measurement,setting,value
"CC(C)C[C@](C)(N)COc1ccc(-c2c[nH]c3ncc(F)cc23)nc1C(F)F [Compound 26, (S)-1-{[2-(difluoromethyl)-6-(5-fluoro-1H-pyrrolo[2,3-b]pyridin-3-yl)pyridin-3-yl]oxy}-2,4-dimethylpentan-2-amine]",EC50,AAK1 (30-330) protein [1],10 to 100 nM
same,concentration at 6 h,"[2]; brain, 0.5 mg/kg",62.5 ng/mL and 688 ng/g
same,concentration at 6 h,"[2]; brain, 1 mg/kg",120 ng/mL and 1320 ng/g
same,Kp at 6 h,[2]; 0.5 mg/kg,17.9
same,Kp at 6 h,[2]; 1 mg/kg,17.6
same,concentration at 6 h,"[2]; plasma, 0.5 mg/kg",38.5 ng/mL
same,concentration at 6 h,"[2]; plasma, 1 mg/kg",75.3 ng/mL
same,in vivo exposure compared with the positive control,"[3]; SD rats, versus BMS-986176",approximately four times
same,peak concentration (Cmax) compared with the positive control,"[3]; SD rats, versus BMS-986176",approximately four times
same,AUC(0-inf),[3]; [5],4130 ng·h/mL
same,AUC(0-t),[3]; [5],4010 ng·h/mL
same,Cmax,[3]; [5],325 ng/mL
same,MRT inf,[3]; [5],10.9 h
same,MRT last,[3]; [5],8.09 h
same,Tmax,[3]; [5],3.1 h
same,half-life,[3]; [5],6.98 h
same,IC50,AAK1 (30-330) protein [4],86.3 nM
same,IC50,AAK1,10 to 100 nM
